Data published in doi:10.1101/2023.10.25.564053v1 (biorxiv, 2023).

Key:
BsAK = BsAK (Bacillus subtilis, UniProt P16304); assay: microscale thermophoresis, amine-labelled protein; type: binding
GsAK = GsAK (Geobacillus stearothermophilus, UniProt P27142); assay: microscale thermophoresis, amine-labelled protein; type: binding
Sequence of GsAK (P27142 whole entry): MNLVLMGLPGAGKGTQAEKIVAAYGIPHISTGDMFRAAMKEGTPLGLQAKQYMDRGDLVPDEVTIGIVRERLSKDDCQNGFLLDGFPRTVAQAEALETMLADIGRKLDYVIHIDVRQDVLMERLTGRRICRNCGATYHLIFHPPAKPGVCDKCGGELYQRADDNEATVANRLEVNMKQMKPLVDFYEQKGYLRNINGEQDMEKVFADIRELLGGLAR

Sequence of BsAK (P16304 whole entry): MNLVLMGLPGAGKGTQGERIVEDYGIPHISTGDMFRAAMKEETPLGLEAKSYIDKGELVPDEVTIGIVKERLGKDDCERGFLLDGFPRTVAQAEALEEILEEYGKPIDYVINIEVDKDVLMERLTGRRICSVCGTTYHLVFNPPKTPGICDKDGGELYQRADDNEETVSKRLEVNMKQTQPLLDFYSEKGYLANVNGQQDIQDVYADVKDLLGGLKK

Kd (BsAK): 25.1 ± 1.1 nM
Kd (GsAK): 17 ± 5.7 nM
Compound: Nc1ncnc2c1ncn2[C@@H]1O[C@H](COP(=O)(O)OP(=O)(O)OP(=O)(O)OP(=O)(O)OP(=O)(O)OC[C@H]2O[C@@H](n3cnc4c(N)ncnc43)[C@H](O)[C@@H]2O)[C@@H](O)[C@H]1O [Ap5A]
